# Reference: patent US5585367A (priority 1990, dated 1996)
# Like-named read-outs stand apart in the source and are kept apart here.
# Assays:
# HIV-1 LAI/IIIB [1] = assay: Inhibition of HIV replication in MT4 cells; format: cell-based
# HIV-1 [2] = format: cell-based
# HIV-1 Wild G = assay: Inhibition of HIV replication in PBL's; format: cell-based; conditions: Human immunodeficiency virus 1, Wild G (resistant to AZT, syncytium inducer)
# HIV-1 Wild E = assay: Inhibition of HIV replication in PBL's; format: cell-based; conditions: Human immunodeficiency virus 1
# HIV-1 [3] = format: cell-based; remark: listed apart in the source
# clinical [4] = conditions: human, in vivo, po
# HIV-1 Wild F = assay: Inhibition of HIV replication in PBL's; format: cell-based; conditions: Human immunodeficiency virus 1, Wild F (resistant to AZT, syncytium inducer)
# [5] = single dose of 3 g, one volunteer
# [6] = Treatment of three sound volunteers for 30 days; format: in vivo, human; conditions: 1500 mgr a day (three portions of 500 mgr)
# Experimental: (§1) Three sound volunteers were treated for 30 days with 1500 mgr a day of a azobisformamide in three portions of 500 mgr.
# [7] = oral
# CD4 lymphocyte [8] = assay: Treatment of four patients with advanced AIDS, CD4 lymphocyte counts (FIG. 1); format: in vivo, human; conditions: all dosage regimens combined
# Experimental: Four patients with advanced AIDS have been treated with ADA. One patient has been treated during two periods, i.e., treated was restarted after a return to baseline subsequent to the withdrawal of ADA. The patients received capsules containing 500 mg. The dosage regimen was 500 mg three times a day except during the second treatment period in the patient who is also the patient of Example 27 where the dosage regimen was increased to 1 gram three times a day. The graph represents the median value of all CD4 lymphocyte counts measured in the patients. All dosage regimens are combined. There were five periods of ADA treatment. Due to the small number of values, medians were calculated by carrying forward the last values of the patients with no data point in the corresponding treatment week. Values of patients who dropped out of the study were carried forward. The linear regression is represented by the equation Y=77.2 +4.8 X, where Y is the absolute CD4 […] and X is the number of weeks after start of ADA treatment. The correlation coefficient is 0.79.
# [9] = Tolerability and effectiveness of single doses; format: in vivo, human; conditions: single doses of between 7 and 140 mg per kg body weight
# CD4 lymphocyte [10] = assay: Treatment of one patient with stage IV AIDS
# T4 lymphocytes [11] = assay: Treatment of three patients presenting different stages of AIDS; format: in vivo, human
# Experimental: as §1
# On the other handy three patients presenting different stages of AIDS were also treated with azobisformamide in the same dosages as he sound volunteers.
# The first patient in final phase presented at least 30 T4 lymphocytes/mm^3, abundant diarrheas and a complete space-time disorientation.
# The second patient in "ARC" phase presented a lymphocytar T4 population of 190/ mm^3, in constant decrease, as well as occasional diarrheas and anal herpes.
# HIV-1 Wild D = assay: Inhibition of HIV replication in PBL's; format: cell-based; conditions: Human immunodeficiency virus 1
# HIV-1 Wild B = assay: Inhibition of HIV replication in PBL's; format: cell-based; conditions: Human immunodeficiency virus 1
# HIV-2 ROD = assay: Inhibition of HIV replication in MT4 cells; format: cell-based; conditions: 0.4 μgr/ml to 250.0 μgr/ml
# Tat = Tat antagonism
# wild HIV-1 strains = assay: Inhibition of HIV replication, wild HIV-1 strains; format: cell-based; conditions: for IC90: Human immunodeficiency virus 1, wild strains from patients
# HIV-1 LAI/IIIB [12] = assay: Inhibition of HIV replication in PBL's; format: cell-based; conditions: PBLs; 0.4 μgr/ml to 250.0 μgr/ml
# HIV-1 Wild C = assay: Inhibition of HIV replication in PBL's; format: cell-based; conditions: Human immunodeficiency virus 1
# pepsin = assay: Inhibition of pepsin; format: biochemical
# clinical [13] = conditions: human, in vivo, po; remark: listed apart in the source
# T4 lymphocytes [14] = assay: Treatment of three patients presenting different stages of AIDS; format: in vivo, human; conditions: first patient (final phase), 1500 mgr a day, day 30; day 0: 24 cells
# HIV [15] = assay: Inhibition of HIV replication, summary over strains and cells; format: cell-based, HIV-1 and HIV-2; conditions: Human immunodeficiency virus 1, p24, 7 to 8 days after infection
# [16] = B. L. OSER et al. (1965); cited from earlier work
# HIV [17] = assay: In-vitro combination with didanosine; format: cell-based; conditions: at and below the IC50
smiles,measurement,setting,value
"NC(=O)N=NC(N)=O [ADA, 1,1'-azobisformamide]",IC50,"HIV-1 LAI/IIIB [1]; Human immunodeficiency virus 1, IIIB, MT4, MT4 cells infected with HIV-1 strain LAI/IIIB, read-out: lowest observed IC50",1.6 µg/mL
same,inhibition of the replication of HIV-1,"HIV-1 LAI/IIIB [1]; MT4 cells, 0.4 μgr/ml to 250.0 μgr/ml",inhibits the replication
same,protection of cellular cultures against the infectious power of HIV-1,HIV-1 [2],protects the cellular cultures against the infectious power of HIV-1
same,IC50,HIV-1 Wild G,11.2 µg/mL
same,IC90,HIV-1 Wild G,21.2 µg/mL
same,IC50,HIV-1 Wild E,8.3 µg/mL
same,IC90,HIV-1 Wild E,18.4 µg/mL
same,cytopathogenic effect,HIV-1 [3],No cytopathogenic effect has been observed
same,Tmax,clinical [4],1 to 1.5 h
same,IC50,HIV-1 Wild F,6.4 µg/mL
same,IC90,HIV-1 Wild F,19 µg/mL
same,absorption and excretion,[5],can be absorbed and even excreted in its active form
same,hematological parameters,[6],remained perfectly normal
same,secondary effect,[6],No secondary effect was reported
same,toxical effect on Supt-1 cells,Supt-1 cells,No toxical effect has been noted
same,absorption,[7],absorbed via the gastro-intestinal route
same,distribution,[7],distributes readily to intracellular compartments
same,correlation coefficient of the CD4 regression,CD4 lymphocyte [8],0.79
same,tolerability and effectiveness,[9],tolerable and effective
same,absolute CD4 lymphocyte count,"CD4 lymphocyte [10]; 500 mg three times a day, 26-week period, from 77",144 cells/mm^3
same,diarrhea,CD4 lymphocyte [10]; 12 weeks after restarting ADA,free of diarrhea
same,weight,CD4 lymphocyte [10]; 12 weeks after restarting ADA,gained considerable weight
same,weight and diarrhea after withdrawal of ADA,CD4 lymphocyte [10]; RT medication without ADA,lost weight and developed intractable diarrhea
same,CD4 lymphocyte count after withdrawal of ADA,"CD4 lymphocyte [10]; RT medication without ADA, within two months",returned to baseline
same,CD4 lymphocyte count,CD4 lymphocyte [10]; fifteen weeks after restarting ADA,190 cells/mm^3
same,adverse effects that could be drug-related,CD4 lymphocyte [10]; occasional increases up to 2 grams three times a day,No adverse effects
same,CD4 lymphocyte count,"CD4 lymphocyte [10]; restart at 1 gram three times a day, within two weeks",144 cells/mm^3
same,coherent talking,"T4 lymphocytes [11]; first patient, day 30",recovered their possibility of coherent talking
same,diarrhea,"T4 lymphocytes [11]; first patient, day 30",the diarrhea has ended
same,walking autonomy,"T4 lymphocytes [11]; first patient, day 30",limited walking autonomy
same,lymphocytes presenting the T4 receptor,"T4 lymphocytes [11]; first patient, day 30, day 0: 5%",9%
same,"lymphocytes, % of white corpuscules","T4 lymphocytes [11]; first patient, day 30, day 0: 17%",20%
same,white corpuscules,"T4 lymphocytes [11]; first patient, day 30, day 0: 1850",2600
same,improvement of T4 lymphocytes,"T4 lymphocytes [11]; first patient, day 30 vs day 0",100%
same,T4 lymphocytes,"T4 lymphocytes [11]; second patient (""ARC"" phase), day 30, before: 190",280 T4 lymphocytes/ mm^3
same,diarrhea and anal herpes,"T4 lymphocytes [11]; second patient, day 30",the diarrhea had completely disappeared as well as the anal herpes
same,T4 lymphocytes,"T4 lymphocytes [11]; third patient (sound seropositive), day 30, before: 350",440 T4 lymphocytes/ mm^3
same,IC50,HIV-1 Wild D,10 µg/mL
same,IC90,HIV-1 Wild D,18.1 µg/mL
same,IC50,HIV-1 Wild B,11.6 µg/mL
same,IC90,HIV-1 Wild B,18.6 µg/mL
same,inhibition of the replication of HIV-2 (ROD),HIV-2 ROD,inhibits the replication
same,Tat antagonism,Tat,not a Tat-antagonist
same,IC90,wild HIV-1 strains; read-out: IC90 range,17.4 to 21.2 µg/mL
same,IC90,"wild HIV-1 strains; read-out: median IC90 (complete inhibition, ≥90% inhibition)",18 µg/mL
same,inhibition of the replication of wild HIV-1 strains,"wild HIV-1 strains; PBLs, including strains phenotypically resistant to AZT, 0.4 to 250.0 μgr/ml",inhibit the replication
same,toxicity against VERO cells,VERO cells,No toxicity against VERO cells was observed
same,inhibition of the replication of HIV-1 (strain IIIB(LAI)),HIV-1 LAI/IIIB [12],inhibit the replication
same,IC50,HIV-1 Wild C,11.1 µg/mL
same,IC90,HIV-1 Wild C,18 µg/mL
same,inhibition of pepsin,pepsin,does not inhibit pepsin
same,MTD,clinical [13],140 mg/kg
same,T4 lymphocytes,T4 lymphocytes [14],49 cells/mm^3
same,IC50,HIV [15]; read-out: IC50 range,1.6 to 14.8 µg/mL
same,IC50,HIV [15]; read-out: median IC50,8 µg/mL
same,flu-like syndrome,"140 mg/kg, from 6 hours after intake, lasted several hours",flu-like syndrome was observed
same,adverse effects such as changes in hemodynamic parameters or subjective well-being,lower doses (35 and 70 mg/kg),No adverse effects
same,toxicity for the humans,[16],absence of toxicity
same,combination with didanosine,HIV [17],additive effects
